Ten molecules from ChEMBL document CHEMBL4304799, “Primaquine homodimers as potential antiplasmodial and anticancer agents” (Bioorg Med Chem Lett, 2019) can be followed below.

One series has as its system HCT-116. The series is described as follows: Antiproliferative activity against human HCT116 cells measured after 72 hrs by MTT assay. The format is functional, cell-based. The note with it: HCT-116, 72 h. Background: Tetrazolium dyes change colour on reduction, which living cells bring about.
The subject of another series is NCI-H460. The series is described as follows: Antiproliferative activity against human H460 cells measured after 72 hrs by MTT assay. The format is functional, cell-based. The following applies: NCI-H460, 72 h.
Series [1] can be described thus: Selectivity index, ratio of IC50 for HEK293 cells to IC50 for human MCF7 cells. The note with it: HEK293 cells versus MCF7 cells, read-out: Ratio IC50. The format is toxicity.
The subject of the next series is HEK293. The series is described as follows: Antiproliferative activity against human HEK293 cells measured after 72 hrs by MTT assay. The format is cell-based. The following applies: HEK293, 72 h.
Series [2] concerns Plasmodium berghei. The series is described as follows: Antiplasmodial activity against liver stage luciferase expressing Plasmodium berghei sporozoites infected in human Huh7 cells preincubated with host cells for 1 hr followed by plasmodium infection. The format is functional, organism-based. The note with it: Huh-7.
Series [3] is described as follows: Selectivity index, ratio of IC50 for HEK293 cells to IC50 for human HCT116 cells. The format is toxicity. The note with it: HEK293 cells versus HCT116 cells, read-out: Ratio IC50.
The subject of the next series is MCF7. The series can be described thus: Antiproliferative activity against human MCF7 cells measured after 72 hrs by MTT assay. The format is functional, cell-based. The note with it: MCF7, 72 h.
Series [4] relates to Plasmodium berghei. The series can be described thus: Antiplasmodial activity against liver stage luciferase expressing Plasmodium berghei sporozoites infected in human Huh7 cells preincubated with host cells for 1 hr followed by plasmodium infection at 1 and 10 uM. The format is functional, organism-based.
Series [5] in a line: Selectivity index, ratio of IC50 for HEK293 cells to IC50 for human H460 cells. The format is toxicity. The note with it: HEK293 cells versus H460 cells, read-out: Ratio IC50.
For series [6], the system named is Plasmodium falciparum. The series can be described thus: Antiplasmodial activity against asexual chloroquine sensitive blood stage Plasmodium falciparum 3D7 measured as HRP2 levels after 3 days by ELISA. The format is functional, organism-based. The following applies: 3D7, 72 h. On the technique in general: An ELISA detects its analyte on a solid surface through an enzyme-linked reagent.

For series [7], the system named is Plasmodium falciparum. The series can be described thus: Antiplasmodial activity against asexual chloroquine resistant blood stage Plasmodium falciparum Dd2 measured as HRP2 levels after 3 days by ELISA. The format is functional, organism-based. The note with it: Dd2, 72 h.

Active and inactive are the calls of the source. The rule behind the calls is not given here.

For orientation: IC50 means the point on the concentration scale where inhibition reaches its midpoint. The low end stands for inhibition by little substance, the high end for a need for much substance. Regarding `COc1cc(NC(C)CCCNC(=O)/C=C\C(=O)NCCCC(C)Nc2cc(OC)cc3cccnc23)c2ncccc2c1` (centres undefined), the IC50 in the series with HCT-116 came to 9.19 µM; in the series with NCI-H460, 14.1 µM; in the series with HEK293 it was 17.5 µM; in the series with Plasmodium berghei [2] it was 0.358 µM; in the series on MCF7, 3.14 µM. Besides, the selectivity ratio in series [1], in series [3] and in [5] was 1.6 to 31 each time. In addition, in the series on Plasmodium berghei [4], the result was Active.

In the case of `COc1cccc2c1C(=O)c1c(O)c3c(c(O)c1C2=O)C[C@@](O)(C(=O)CO)C[C@@H]3O[C@H]1C[C@H](N)[C@H](O)[C@H](C)O1` [DOXORUBICIN], the IC50 in the series on HCT-116 amounted to 0.01 µM; in the series on NCI-H460, 0.003 µM; in the series with HEK293, 0.018 µM; in the series with MCF7, 0.01 µM.

`COc1cc(NC(C)CCCN)c2ncccc2c1` (centres undefined) [PRIMAQUINE PHOSPHATE]: the 50% inhibitory concentration (IC50) with Plasmodium falciparum [6] worked out at 1.3 µM; in the series on HCT-116, 14 µM; in the series with NCI-H460, 19.8 µM; in the series with Plasmodium falciparum [7] it was 1.9 µM; with HEK293, 11 µM; in the series on MCF7 it was 8.73 µM. The outcome with Plasmodium berghei [4] was Active.

On to `COc1cc(NC(C)CCCNC(=O)/C=C(\C)C(=O)NCCCC(C)Nc2cc(OC)cc3cccnc23)c2ncccc2c1` (centres undefined), for which the concentration for half-maximal inhibition (IC50) with HCT-116 was determined as 4.31 µM; with NCI-H460, 1.63 µM; in the series on HEK293, 10 µM; in the series with MCF7, 2.36 µM.

As for `COc1cc(NC(C)CCCNC(=O)CCCC(=O)NCCCC(C)Nc2cc(OC)cc3cccnc23)c2ncccc2c1` (centres undefined), the IC50 in the series with Plasmodium falciparum [6] is 16.5 µM; in the series on HCT-116 it was 16.9 µM; with NCI-H460 it was 10.3 µM; in the series on Plasmodium falciparum [7], over 27.7 µM; in the series with HEK293, 26.4 µM; in the series with MCF7 it was 3.37 µM. Further, the selectivity ratio in [1], in [3] and in series [5] was 1.6 to 31 throughout. The outcome in the series on Plasmodium berghei [4] was Active.

With `COc1cc(NC(C)CCCNC(=O)CCCCC(=O)NCCCC(C)Nc2cc(OC)cc3cccnc23)c2ncccc2c1` (centres undefined), the IC50 with Plasmodium falciparum [6] was over 27.7 µM; with HCT-116, 13.7 µM; in the series with NCI-H460, 2.49 µM; in the series on Plasmodium falciparum [7], over 27.7 µM; with HEK293, at least 100 µM; in the series with MCF7, 1.78 µM. The selectivity ratio in [1], in series [3] and in series [5] was 7.3 to 56 each time. In the series with Plasmodium berghei [4], the result was Active.

Regarding `COc1cc(NC(C)CCCNC(=O)CCC(=O)NCCCC(C)Nc2cc(OC)cc3cccnc23)c2ncccc2c1` (centres undefined), the IC50 is 17.2 µM with Plasmodium falciparum [6]; 11.3 µM in the series on HCT-116; 18.5 µM in the series on NCI-H460; over 27.7 µM in the series with Plasmodium falciparum [7]; 2.25 µM with HEK293; 0.726 µM with Plasmodium berghei [2]. Further, in the series on MCF7, the IC50 came to 2.82 µM. In the series with Plasmodium berghei [4], the outcome was Active.

With `COc1cc(NC(C)CCCNC(=O)CCCCCCC(=O)NCCCC(C)Nc2cc(OC)cc3cccnc23)c2ncccc2c1` (centres undefined), the IC50 with Plasmodium falciparum [6] is 23.1 µM; in the series with HCT-116 it was at least 100 µM; with NCI-H460 it was at least 100 µM; in the series on Plasmodium falciparum [7], 12.7 µM; in the series on HEK293, at least 100 µM; in the series with MCF7, 1.85 µM. For the same molecule, the outcome with Plasmodium berghei [4] was Active.

In the case of `COc1cc(NC(C)CCCNC(=O)CCCCCC(=O)NCCCC(C)Nc2cc(OC)cc3cccnc23)c2ncccc2c1` (centres undefined), the IC50 in the series on HCT-116 was determined as 26.1 µM; with NCI-H460, 26.7 µM; in the series on HEK293, 94.9 µM; in the series with MCF7, 3.04 µM. Besides, the selectivity ratio in [1], in [3] and in series [5] was 1.6 to 31 in each case.

With `COc1cc(NC(C)CCCNC(=O)/C=C/C(=O)NCCCC(C)Nc2cc(OC)cc3cccnc23)c2ncccc2c1` (centres undefined), the IC50 was 14.6 µM in the series with Plasmodium falciparum [6]; at least 100 µM in the series on HCT-116; at least 100 µM with NCI-H460; over 27.7 µM in the series with Plasmodium falciparum [7]; at least 100 µM with HEK293; 0.198 µM with Plasmodium berghei [2]. This molecule showed an IC50 with MCF7 of 9.3 µM. Also, the outcome with Plasmodium berghei [4] was Active.
